According to ChEMBL document CHEMBL1201862, “PubChem BioAssay data set” (2004):
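Exposure lasted 48 hours, with cells grown in 96-well plates and compounds tested at five concentrations. GI50: concentration for 50% inhibition of growth.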 Active and inactive are the calls of the source. Cut-off read from the data, not from the text of the source: active = GI50 up to about 1.1 µM and inactive = higher. Positions of bridges follow the written chain, without caps; N, C: chain ends. Residues, ends and D or L forms follow the SMILES beside them.

Key:
Experiment in all cases: DTP human tumour cell line panel, 48 h
[1] = test system: T47D
[2] = test system: Hs-578T
[3] = test system: NCI/ADR-RES
[4] = test system: DMS-114
[5] = test system: XF498
[6] = test system: SNB-78
[7] = test system: DLD-1
[8] = test system: HOP-18

Structure (SMILES) | GI50 [1] | GI50 [2] | GI50 [3] | GI50 [4] | GI50 [5] | GI50 [6] | GI50 [7] | GI50 [8]
O=C1CC(C(O)C(O)C(O)CO)CC(=O)N1 (stereo not given) | > 100 µM (inactive) | > 100 µM (inactive) | > 100 µM (inactive) |  |  |  |  | 
Nc1ncnc2c1ncn2[C@@H]1O[C@H](COP(=O)(O)OP(=O)(O)OC[C@H]2O[C@@H](OCCCO)[C@H](O)[C@@H]2O)[C@@H](O)[C@H]1O | > 100 µM (inactive) | > 100 µM (inactive) | > 100 µM (inactive) |  |  |  |  | 
CC(=O)OCC12C(OC(C)=O)C(=O)C3C(OC(C)=O)C14OC3(C)COC(=O)c1cccnc1C(C)C(C)C(=O)OC(C(OC(C)=O)C2OC(C)=O)C4(C)O (stereo not given) | > 100 µM (inactive) | > 100 µM (inactive) |  |  |  |  |  | 
CCC/C(Cl)=N\OC(=O)Nc1ccc(Br)cc1 | 7.24 µM (inactive) | 21.1 µM (inactive) | 8.99 µM (inactive) |  |  |  |  | 
CCc1ccccc1NC(=O)C1=C(C)NC(C)=C(C(=O)Nc2ccccc2CC)C1c1ccc2c(c1)OCO2 |  |  |  | 22.9 µM (inactive) | 23 µM (inactive) | 34 µM (inactive) | 22.7 µM (inactive) | 
c1ccc(Cc2cc(-c3ccccc3)[nH]n2)cc1 | 33.3 µM (inactive) | 15.3 µM (inactive) | 21.8 µM (inactive) |  |  |  |  | 
O=C(c1ccccc1)N(C(=O)c1ccccc1)c1nc(SCc2ccccc2)ns1 | 25 µM (inactive) | 26.1 µM (inactive) | 28.3 µM (inactive) |  |  |  |  | 
Cc1ccc(SCC(CF)OC(C)n2cnc3c(Cl)nc(N)nc32)cc1 (stereo not given) | 54.6 µM (inactive) | > 100 µM (inactive) | 25.1 µM (inactive) |  |  |  |  | 
CC1(C)OC2C(CO)OC(n3cnc(N)nc3=O)C2O1 (stereo not given) | > 100 µM (inactive) | > 100 µM (inactive) | > 100 µM (inactive) |  |  |  |  | 
COc1ccc2c(=O)c3cc([N+](=O)[O-])ccc3n(C)c2c1 | > 100 µM (inactive) | > 100 µM (inactive) | > 100 µM (inactive) |  |  |  |  | 
COc1ccc(-c2nc3ncccn3c2-c2ccc([S+](C)[O-])cc2)cc1 (stereo not given) |  | > 100 µM (inactive) | > 100 µM (inactive) |  |  |  |  | 
Cc1nn(C(=O)c2ccccc2O)c2c1C(c1ccc(O)cc1O)SC(=N)N2 (stereo not given) |  | 1.91 µM (inactive) | 3.33 µM (inactive) |  |  |  |  | 
O=C(Cc1ccc(OCc2cccc(Cl)c2)cc1)NO | 5.74 µM (inactive) | 30 µM (inactive) | 12.2 µM (inactive) |  |  |  |  | 
CC(O)(/C=C/c1ccccc1)P(=O)(O)c1ccccc1 (stereo not given) | > 100 µM (inactive) | > 100 µM (inactive) | > 100 µM (inactive) |  |  |  |  | 
Cc1ccc(S(=O)(=O)Oc2cc(S(=O)(=O)O)cc3cc(S(=O)(=O)O)cc(N)c23)cc1 | > 100 µM (inactive) | > 100 µM (inactive) | > 100 µM (inactive) |  |  |  |  | 
CC(/C=N/N(C)C1=NCCCN1)=N/N(C)C1=NCCCN1 | > 100 µM (inactive) | > 100 µM (inactive) | > 100 µM (inactive) |  |  |  |  | 
O=C(CNc1nncs1)NO |  |  |  | 54.3 µM (inactive) |  | > 100 µM (inactive) | > 100 µM (inactive) | > 100 µM (inactive)
N#CC(C#N)=Cc1cccc(Oc2ccccc2)c1 |  |  |  | 26.2 µM (inactive) | 20.2 µM (inactive) | 29.2 µM (inactive) | 22.5 µM (inactive) | 16.7 µM (inactive)
Cc1ccc(/N=C2\C(=N/c3ccc(C)cc3)N(c3ccc(C)cc3)C(=S)N2C(=O)c2ccccc2)cc1 | > 100 µM (inactive) | > 100 µM (inactive) | > 100 µM (inactive) |  |  |  |  | 
NC(Cc1c[nH]c2cc([N+](=O)[O-])ccc12)C(=O)O (stereo not given) | > 100 µM (inactive) | > 100 µM (inactive) | > 100 µM (inactive) |  |  |  |  | 
CN(C)CCCN1c2ccc([N+](=O)[O-])cc2CCc2cc([N+](=O)[O-])ccc21 | 15.6 µM (inactive) | 15.2 µM (inactive) | 14.3 µM (inactive) |  |  |  |  | 

Structure (SMILES) | GI50 [1] | GI50 [2] | GI50 [3] | GI50 [4] | GI50 [5] | GI50 [6] | GI50 [7] | GI50 [8]
CCC(C)C1NC(=O)C(CC(C)C)NC(=O)C(C(C)C)NC(=O)C2CSSCC(NC1=O)C(=O)N2 (stereo not given) (cyclo(CCVLI); disulfide 1-2; configuration not given here) | 0.0305 µM (active) | 0.043 µM (active) | 2.55 µM (inactive) |  |  |  |  | 
O=C(ON=C1c2ccccc2C(Br)C(Br)c2ccccc21)c1ccccc1 (stereo not given) | 9.57 µM (inactive) | 21.5 µM (inactive) | 22.8 µM (inactive) |  |  |  |  | 
C[N+]12CCCCC1C(CN1C(=O)Cc3c4ccccc4c(c4ccccc34)CC1=O)CCC2 (stereo not given) | > 100 µM (inactive) | > 100 µM (inactive) | > 100 µM (inactive) |  |  |  |  | 
Cc1cc(C)c2ccc(N3CCNCC3)nc2n1 |  | > 100 µM (inactive) | > 100 µM (inactive) |  |  |  |  | 
CC1=NN(c2ccccc2)C(=O)C1/N=N/c1ccc([As](=O)(O)O)c(O)c1 (stereo not given) | 60.8 µM (inactive) | > 100 µM (inactive) | > 100 µM (inactive) |  |  |  |  | 
Cc1ccc(S(=O)(=O)NC2CCCCO2)cc1 (stereo not given) |  |  |  | > 100 µM (inactive) | > 100 µM (inactive) | > 100 µM (inactive) | > 100 µM (inactive) | > 100 µM (inactive)
C/C(=N\NC(=S)N1CCN(c2ccccn2)CC1)c1ccccn1 | 0.107 µM (active) | 0.129 µM (active) |  | 0.0001 µM (active) | 0.000206 µM (active) | 5.38 µM (inactive) | 0.000509 µM (active) | 
CN(C)Cc1cc(C(=O)/C=C/c2ccc(Cl)c(Cl)c2)cc(CN(C)C)c1O | 4.41 µM (inactive) | 3.04 µM (inactive) | 2.24 µM (inactive) |  |  |  |  | 
Cc1ccc(C)c(NC(=O)c2cccc([N+](=O)[O-])c2O)c1 |  |  |  | 15.1 µM (inactive) | 23.2 µM (inactive) | 14.1 µM (inactive) | 27.8 µM (inactive) | 5.7 µM (inactive)
Cc1cc(O)nc(NNC(C#N)c2ccc([N+](=O)[O-])cc2)n1 (stereo not given) |  |  |  | 45.6 µM (inactive) |  | 42.6 µM (inactive) | > 100 µM (inactive) | > 100 µM (inactive)
CC(=O)/C=C/C=C(\C)CC/C=C(\C)CC(C)C | 14.6 µM (inactive) | 53.5 µM (inactive) |  |  |  |  |  | 
COC(=O)C1=C2SCc3ccc(cc3)CSC3=C(C(=O)OC)SC(=C(S2)S1)S3 | > 100 µM (inactive) |  |  |  |  |  |  | 
Cc1ccc(/C(O)=C/c2nc3ccccc3oc2=O)cc1 | 77.6 µM (inactive) | 46.9 µM (inactive) | 25.5 µM (inactive) |  |  |  |  | 
OCC1OC(n2cnc3c2N=CNC[C@H]3O)C(Cl)C1O (stereo not given in full) | > 100 µM (inactive) | > 100 µM (inactive) | > 100 µM (inactive) |  |  |  |  | 
CCN(CC)CCNC(=O)c1ccccc1Nc1c(Cl)cccc1Cl |  |  |  | 11.6 µM (inactive) | 4.19 µM (inactive) | 16.4 µM (inactive) | 11.7 µM (inactive) | 
O=C(O)c1ccc([N+](=O)[O-])c(P(=O)(O)O)c1 | > 100 µM (inactive) |  | > 100 µM (inactive) |  |  |  |  | 
O=C1N/C(=N/N=C/c2ccccc2)N/C1=C\c1cccs1 | 28.2 µM (inactive) | 2.77 µM (inactive) | 15.2 µM (inactive) |  |  |  |  | 
CC(=O)OCC(OC(C)=O)C(OC(C)=O)C(OC(C)=O)C(=O)CNn1c(-c2ccccc2Cl)nc2ccc(Br)cc2c1=O (stereo not given) |  |  |  | 30.4 µM (inactive) | 15.5 µM (inactive) | 65.6 µM (inactive) |  | 
O=c1/c(=C/c2ccccn2)sc2nc3cc4c(cc3n12)OCCO4 | > 100 µM (inactive) | > 100 µM (inactive) | > 100 µM (inactive) |  |  |  |  | 
CN(C)C1(C#N)CCC2(CC1)OCCO2 |  |  |  |  |  | > 100 µM (inactive) |  | 
C=Cc1ccc(C)[n+](C[Si](C)(C)O[Si](C)(C)C[n+]2cc(C=C)ccc2C)c1 |  |  |  | > 100 µM (inactive) |  | > 100 µM (inactive) | > 100 µM (inactive) | > 100 µM (inactive)

Structure (SMILES) | GI50 [1] | GI50 [2] | GI50 [3] | GI50 [4] | GI50 [5] | GI50 [6] | GI50 [7] | GI50 [8]
Oc1cccnc1/C=N/OCc1ccccc1 |  |  |  | > 100 µM (inactive) | 29 µM (inactive) | > 100 µM (inactive) | > 100 µM (inactive) | 
Nc1nc(=O)c2c([nH]1)NCC(CCNc1ccc(C(=O)O)cc1)N2 (stereo not given) | > 100 µM (inactive) | > 100 µM (inactive) | > 100 µM (inactive) |  |  |  |  | 
CC(N/N=C(\S)N1CCCC1)c1cccnn1 (stereo not given) | 0.553 µM (active) | 9.53 µM (inactive) | 0.48 µM (active) |  |  |  |  | 
O=C1OC(C(O)C(O)C(O)CO)C(O)C1O (stereo not given) | > 100 µM (inactive) | > 100 µM (inactive) | > 100 µM (inactive) |  |  |  |  | 
CC/C(Cl)=N\OC(=O)Nc1ccc(F)c([N+](=O)[O-])c1 |  | 17.4 µM (inactive) | 26.9 µM (inactive) |  |  |  |  | 
O=C1C(C(c2ccc([N+](=O)[O-])cc2)N2CCOCC2)=C(O)C(c2ccccc2)N1c1ccccc1 (stereo not given) | > 10 µM (inactive) | > 10 µM (inactive) | > 10 µM (inactive) |  |  |  |  | 
O=C(c1ccc(/N=C/c2ccccc2O)cc1)c1ccc(/N=C/c2ccccc2O)cc1 | 62.8 µM (inactive) |  | > 100 µM (inactive) |  |  |  |  | 
C=CCCCCCCCCC(=O)ON(Cc1ccc(O)c(OC)c1)C(=O)C(F)(F)F | 72.1 µM (inactive) | 10.8 µM (inactive) | > 100 µM (inactive) |  |  |  |  | 
O=c1[nH]c(N/N=C\C(O)C(O)C(O)CO)nc2ccccc12 (stereo not given) | > 100 µM (inactive) | > 100 µM (inactive) | > 100 µM (inactive) |  |  |  |  | 
COc1cc2c(cc1OC)-c1c(oc3cc(OC4OC(CO)C(O)C(O)C4O)c(OC)cc3c1=O)C(O)O2 (stereo not given) |  | > 100 µM (inactive) | > 100 µM (inactive) |  |  |  |  | 
COc1cc2c(cc1OCCCC(=O)Nc1cc(C(=O)Nc3cc(C(=O)NCCCN(C)C)n(C)n3)n(C)n1)N=CC1CCCN1C2=O (stereo not given) | 14.2 µM (inactive) |  | 20 µM (inactive) |  |  |  |  | 
COC1=CC(=O)C2C(C1=O)[C@@H]1c3ccccc3OC[C@H]21 (stereo not given in full) |  |  |  | > 100 µM (inactive) |  | > 100 µM (inactive) | > 100 µM (inactive) | > 100 µM (inactive)
COC(=O)[C@H](C)NC(=O)[C@H](NS(=O)(=O)c1nc2ccccc2s1)c1ccccc1 | 15.3 µM (inactive) | 8.2 µM (inactive) | 30.3 µM (inactive) |  |  |  |  | 
C=CCC1(O)C(=O)OC2C(O)COC21O (stereo not given) | > 100 µM (inactive) | > 100 µM (inactive) | > 100 µM (inactive) |  |  |  |  | 
C=CCOCn1cnc2c(N)ncnc21 | > 100 µM (inactive) | > 100 µM (inactive) | > 100 µM (inactive) |  |  |  |  | 
N=C(N)NS(=O)(=O)c1ccc(NCc2c3ccccc3[n+]([O-])c3ccccc23)cc1 |  |  |  | 10.4 µM (inactive) |  | 31.6 µM (inactive) | 28.2 µM (inactive) | 8.63 µM (inactive)
Cc1ccc(-c2c(C#N)c(-c3ccc(N(C)C)cc3)c(C#N)c(=O)n2NS(=O)(=O)c2ccccc2)cc1 |  | 33.7 µM (inactive) | 39.4 µM (inactive) |  |  |  |  | 
CC1(C)CCCCCCCCCC(C)(CCCO)C1=O (stereo not given) | 15.6 µM (inactive) | 20.6 µM (inactive) | 16.6 µM (inactive) |  |  |  |  | 
Cc1cccc2c1C/C(=C\c1cccc(C)c1C(=O)O)C2=O | > 100 µM (inactive) | > 100 µM (inactive) | > 100 µM (inactive) |  |  |  |  | 
